Where two headings read alike, the source gives them in different places.
Tests used:
[1] = Microsomal stability assay, rat liver microsomes; details: rat liver microsomes;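 further: rat liver microsomes (0.25 mg/mL) with about 1 µM compound plus 1 mM NADPH, pH 7.4, 37 °C for 30 min, parent left measured by LC-MS/MS against 0 min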
[2] = test system: Aβ40 in conditioned medium of cells stably expressing Amyloid Precursor Protein (APP); test: In vitro BACE cell-based assay (Aβ40 in conditioned medium, sandwich ELISA); details: Homo sapiens;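 further: compounds added as a dilution series, secreted peptide quantified by europium time-resolved fluorescence readout, potency fitted from percent of control versus compound concentration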
[3] = Microsomal stability assay, human liver microsomes; details: human liver microsomes;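 further: pooled human liver microsomes at 0.25 mg/mL with 1 µM compound and NADPH at 37 °C, pH 7.4, for 30 min, unchanged parent quantified by LC-MS/MS against the 0 min sample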
[4] = biological target: Beta Secretase enzyme (BACE) (Homo sapiens, UniProt P56817); test: In vitro enzymatic BACE FRET (fluorescence resonance energy transfer) assay; type: biochemical;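 further: fluorescence read after 1 h with 50 nM quenched peptide substrate spanning the BACE cleavage site, in pH 4.2 acetate buffer containing 10% DMSO and nonionic detergent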
Sequence of Beta Secretase enzyme (BACE) (P56817 46-501): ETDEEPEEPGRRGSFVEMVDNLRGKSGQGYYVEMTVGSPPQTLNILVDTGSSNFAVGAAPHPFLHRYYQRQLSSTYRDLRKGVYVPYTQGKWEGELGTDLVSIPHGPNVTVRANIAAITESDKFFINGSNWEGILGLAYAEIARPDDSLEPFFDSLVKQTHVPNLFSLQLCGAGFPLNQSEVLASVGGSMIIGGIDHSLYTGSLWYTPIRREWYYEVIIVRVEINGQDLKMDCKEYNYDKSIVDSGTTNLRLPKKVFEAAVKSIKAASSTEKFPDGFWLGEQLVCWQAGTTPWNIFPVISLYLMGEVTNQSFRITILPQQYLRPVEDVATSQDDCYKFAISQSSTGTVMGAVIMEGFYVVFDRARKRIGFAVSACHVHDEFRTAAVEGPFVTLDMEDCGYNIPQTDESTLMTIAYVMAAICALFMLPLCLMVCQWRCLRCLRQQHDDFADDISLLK

[5] = test system: Abeta peptide; test: In vivo inhibition of beta-secretase (reduction of Abeta peptide in brain and cerebrospinal fluid); set-up: species or system rat; details: Rattus norvegicus, po, 4 h, orally administered at 30 mg/kg dose, measured after 4 hours;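 further: abeta peptide quantified by sandwich ELISA with electrochemiluminescence readout in rat brain supernatant or CSF, relative to vehicle-dosed control animals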
[6] = biological target: CYP2D6 (Homo sapiens, UniProt P10635); test: CYP2D6 inhibition assay (bufuralol, pooled human liver microsomes)
Sequence of CYP2D6 (P10635 whole entry): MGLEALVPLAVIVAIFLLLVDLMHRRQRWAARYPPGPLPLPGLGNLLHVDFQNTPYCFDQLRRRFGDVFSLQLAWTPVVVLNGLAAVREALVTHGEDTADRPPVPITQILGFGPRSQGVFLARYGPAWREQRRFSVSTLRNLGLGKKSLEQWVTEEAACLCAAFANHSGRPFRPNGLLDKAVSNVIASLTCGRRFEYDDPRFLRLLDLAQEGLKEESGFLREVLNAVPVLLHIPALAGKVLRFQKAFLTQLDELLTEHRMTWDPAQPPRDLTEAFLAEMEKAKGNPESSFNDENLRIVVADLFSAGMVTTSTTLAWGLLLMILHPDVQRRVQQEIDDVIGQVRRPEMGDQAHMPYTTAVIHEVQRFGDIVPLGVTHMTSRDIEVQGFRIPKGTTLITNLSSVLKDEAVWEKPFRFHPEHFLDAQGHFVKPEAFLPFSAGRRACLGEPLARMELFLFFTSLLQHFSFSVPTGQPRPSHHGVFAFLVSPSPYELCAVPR

[7] = biological target: CYP3A4 (CYP3A) (Homo sapiens, UniProt P08684); test: in vitro; details: microsomes, pH 7.4;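 further: inhibition of CYP3A-mediated 1-hydroxymidazolam formation after 10 min incubation with NADPH, quantified by HPLC MS relative to metabolite produced without test compound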
Sequence of CYP3A4 (CYP3A) (P08684 2-503): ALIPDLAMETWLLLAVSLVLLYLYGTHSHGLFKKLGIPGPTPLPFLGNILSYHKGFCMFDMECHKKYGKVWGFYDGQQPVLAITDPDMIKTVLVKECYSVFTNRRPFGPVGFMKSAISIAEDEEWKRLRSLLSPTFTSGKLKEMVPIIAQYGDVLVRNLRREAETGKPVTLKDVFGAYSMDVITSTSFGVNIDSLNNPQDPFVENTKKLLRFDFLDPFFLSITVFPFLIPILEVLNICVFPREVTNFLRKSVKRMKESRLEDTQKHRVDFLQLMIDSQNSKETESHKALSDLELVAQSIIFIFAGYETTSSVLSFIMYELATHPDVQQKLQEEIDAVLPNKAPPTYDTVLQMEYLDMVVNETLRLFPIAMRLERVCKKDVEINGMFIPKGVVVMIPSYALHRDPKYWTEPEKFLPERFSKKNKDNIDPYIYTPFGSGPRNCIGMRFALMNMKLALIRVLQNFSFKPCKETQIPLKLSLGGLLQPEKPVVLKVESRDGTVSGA

[8] = HEK293, HEK cells, read-out: HEK cell assay (IC50)
[9] = read-out: BACE1 FRET assay (IC50)
[10] = rat cerebrospinal fluid, read-out: percent reduction of abeta peptide in the cerebrospinal fluid of the rat
[11] = rat brain, read-out: percent reduction of abeta peptide in the brain of the rat
[12] = HEK293, HEK cell-based assay IC50, read-out: HEK cell assay
[13] = BACE enzyme assay IC50, read-out: BACE1 FRET assay
[14] = 2D6 IC50 (uM), CYP2D6 inhibition

Row | SMILES | RLM [1] | IC50 [2, 8] | HLM [3] | IC50 [4, 9] | inhibition in vivo at 30 mg/kg [5, 10] | IC50 ([6]; 2D6 IC50, CYP2D6 inhibition) | IC50 [7] | inhibition in vivo at 30 mg/kg [5, 11] | IC50 [2, 12] | IC50 [4, 13] | IC50 [6, 14]
1 | COCC(=O)N[C@@H](Cc1ccc2c(c1)OCO2)[C@H](O)CN[C@H]1CC2(CCC2)Oc2ncc([C@@H]3CC3(C)C)cc21 [Example 575, N-((1S,2R)-1-(1,3-benzodioxol-5-ylmethyl)-3-(((4′S)-6′-((1R)-2,2-dimethylcyclopropyl)-3′,4′-dihydrospiro[cyclobutane-1,2′-pyrano[2,3-b]pyridin]-4′-yl)amino)-2-hydroxypropyl)-2-methoxyacetamide] | 194 µL/min/mg | 16 nM | 33 µL/min/mg | 10 nM | 10 to 80% | 1.5 µM | 100 nM | – | – | – | –
2 | CO[C@H](C)C(=O)N[C@@H](Cc1ccc2c(c1)OCO2)[C@H](O)CN[C@H]1CC2(CCC2)Oc2ncc([C@@H]3CC3(C)C)cc21 [Example 578] | 185 µL/min/mg | 19 nM | 36 µL/min/mg | 18 nM | – | 2 µM | 100 nM | 5 to 80% | – | – | –
3 | COCC(=O)N[C@@H](Cc1cc(F)cc(F)c1)[C@H](O)CN[C@H]1CC2(CCC2)Oc2c1cc(CC(C)(C)C)nc2-c1nccn1C [Example 596] | 39 µL/min/mg | 9 nM | 26 µL/min/mg | 41 nM | 10 to 80% | 2.9 µM | 100 nM | – | – | – | –
4 | COCC(=O)N[C@@H](Cc1ccncc1)[C@H](O)CN[C@H]1CC2(CCC2)Oc2c(-c3ccncc3)cc(CC(C)C)cc21 [Example 628] | 239 µL/min/mg | 7 nM | 94 µL/min/mg | 45 nM | 10 to 80% | 1.9 µM | 100 nM | – | – | – | –
5 | COCC(=O)N[C@@H](Cc1cccc(C#N)c1)[C@H](O)CN[C@H]1CC2(CCC2)Oc2c(-c3ccncc3)cc(CC(C)(C)C)cc21 [Example 636] | 90 µL/min/mg | 5 nM | 32 µL/min/mg | 8 nM | 10 to 80% | 3 µM | 100 nM | – | – | – | –
6 | CC(=O)N[C@@H](Cc1ccc(F)c(-c2nccs2)c1)[C@H](O)CN[C@H]1CC2(CCC2)Oc2ccc(CC(C)(C)C)cc21 [Example 640] | 113 µL/min/mg | 53 nM | 59 µL/min/mg | 6 nM | 10 to 80% | 0.3 µM | 700 nM | – | – | – | –
7 | CC(=O)N[C@@H](Cc1cccc(-c2nccs2)c1)[C@H](O)CN[C@H]1CC2(CCC2)Oc2ccc(CC(C)(C)C)cc21 [Example 641, N-((1S,2R)-3-(((4S)-6-(2,2-dimethylpropyl)-3,4-dihydrospiro[chromene-2,1′-cyclobutan]-4-yl)amino)-2-hydroxy-1-(3-(1,3-thiazol-2-yl)benzyl)propyl)acetamide] | 165 µL/min/mg | 29 nM | 102 µL/min/mg | 6 nM | 10 to 80% | 0.3 µM | 700 nM | – | – | – | –
8 | CC(=O)N[C@@H](Cc1cc(F)cc(-c2nccs2)c1)[C@H](O)CN[C@H]1CC2(CCC2)Oc2ncc(CC(C)(C)C)cc21 [Example 643, N-((1S,2R)-3-(((4′S)-6′-(2,2-dimethylpropyl)-3′,4′-dihydrospiro[cyclobutane-1,2′-pyrano[2,3-b]pyridin]-4′-yl)amino)-1-(3-fluoro-5-(1,3-thiazol-2-yl)benzyl)-2-hydroxypropyl)acetamide] | 56 µL/min/mg | 12 nM | 68 µL/min/mg | 2 nM | 10 to 80% | 0.7 µM | 100 nM | 5 to 80% | – | – | –
9 | CO[C@H](C)C(=O)N[C@@H](Cc1cc(F)cc(F)c1)[C@H](O)CN[C@H]1CC2(CCC2)Oc2c1cc(CC(C)(C)C)nc2-c1cncn1C [Example 652] | 50 µL/min/mg | 20 nM | 26 µL/min/mg | 28 nM | 10 to 80% | 2 µM | 160 nM | – | – | – | –
10 | CC(=O)N[C@@H](Cc1cc(F)cc(-c2cncs2)c1)[C@H](O)CN[C@H]1CC2(CCC2)Oc2ncc(CC(C)(C)C)cc21 [Example 671, N-((1S,2R)-3-(((4′S)-6′-(2,2-dimethylpropyl)-3′,4′-dihydrospiro[cyclobutane-1,2′-pyrano[2,3-b]pyridin]-4′-yl)amino)-1-(3-fluoro-5-(1,3-thiazol-5-yl)benzyl)-2-hydroxypropyl)acetamide] | 48 µL/min/mg | – | 99 µL/min/mg | – | 10 to 80% | – | 100 nM | – | 12 nM | 5 nM | 0.4 µM
11 | CC(=O)N[C@@H](Cc1cc(F)cc(F)c1)[C@H](O)CN[C@H]1CC2(CCC2)Oc2c(-c3ccncc3)cc(CC(C)C)cc21 [Example 673] | 118 µL/min/mg | – | 46 µL/min/mg | – | 10 to 80% | – | ≤ 30 nM | – | 5 nM | 9 nM | 0.8 µM
12 | CC(=O)N[C@@H](Cc1ccc(-c2nccs2)cc1)[C@H](O)CN[C@H]1CC2(CCC2)Oc2ncc(CC(C)(C)C)cc21 [Example 677] | 52 µL/min/mg | – | 57 µL/min/mg | – | 10 to 80% | – | 100 nM | 5 to 80% | 28 nM | 15 nM | 1 µM
13 | CO[C@H](C)C(=O)N[C@@H](Cc1cc(F)cc(F)c1)[C@H](O)CN[C@H]1CC2(CCC2)Oc2c1cc(CC(C)C)nc2-c1ccncc1 [Example 687] | 91 µL/min/mg | – | 27 µL/min/mg | – | 10 to 80% | – | ≤ 30 nM | – | 16 nM | 8 nM | 0.2 µM
14 | CO[C@H](C)C(=O)N[C@@H](Cc1ccc(F)c(-c2nccs2)c1)[C@H](O)CN[C@H]1CC2(CCC2)Oc2ncc(CC(C)(C)C)cc21 [Example 690] | 53 µL/min/mg | – | 40 µL/min/mg | – | – | – | 100 nM | 5 to 80% | 40 nM | 11 nM | 0.5 µM
15 | COCC(=O)N[C@@H](Cc1cccc(-n2ccnc2)c1)[C@H](O)CN[C@H]1CC2(CCC2)Oc2ncc(CC(C)(C)C)cc21 [Example 698, N-((1S,2R)-3-(((4′S)-6′-(2,2-dimethylpropyl)-3′,4′-dihydrospiro[cyclobutane-1,2′-pyrano[2,3-b]pyridin]-4′-yl)amino)-2-hydroxy-1-(3-(1H-imidazol-1-yl)benzyl)propyl)-2-methoxyacetamide] | 33 µL/min/mg | – | 58 µL/min/mg | – | 10 to 80% | – | ≤ 30 nM | – | 9 nM | 26 nM | 0.1 µM
16 | CO[C@H](C)C(=O)N[C@@H](Cc1cc(F)cc(F)c1)[C@H](O)CN[C@H]1CC2(CCC2)Oc2c1cc(CC(C)C)nc2-c1cncn1C [Example 710] | 39 µL/min/mg | – | 16 µL/min/mg | – | 10 to 80% | – | 100 nM | – | 18 nM | 26 nM | 2.8 µM
17 | COCC(=O)N[C@@H](Cc1ccc(-c2nccs2)c(F)c1)[C@H](O)CN[C@H]1CC2(CCC2)Oc2ncc(CC(C)(C)C)cc21 [Example 730] | 74 µL/min/mg | – | 57 µL/min/mg | – | 10 to 80% | – | ≤ 30 nM | – | 27 nM | 39 nM | 0.7 µM
